Drawing on the RepoRT retention time repository, this text covers LC retention time for 87 compounds.

This data set in a line: RP, Thermo Scientific Hypersil GOLD, 1.9 µm, 40 °C, 0.4 mL/min; A: water + 0.1% formic acid, pH 3; B: acetonitrile + 0.1% formic acid, pH 3; gradient (min/%B) 0/0 1/0 11/100 13/100 14/0 16/0. Conditions: stereoisomer not certain.
Consider `CC(C)(CO)C(O)C(=O)NCCC(=O)O` (configuration not stated) [PANTOTHENATE], for which the LC retention time was 4.11 min.

For the compound `C=C(CC(=O)O)C(=O)O` [ITACONATE], the LC retention time is 3.2 min.

For `NCCc1c[nH]c2ccccc12` [TRYPTAMINE], the LC retention time came out at 4.7 min.

With `CCCCC(O)C(=O)O` (configuration not stated) [2-hydroxycaproic acid], the LC retention time came to 5.43 min.

`NC(N)=NC(CC(=O)O)C(=O)O` (configuration not stated) [GUANIDINOSUCCINATE]: the LC retention time amounted to 0.67 min.

`NC(Cc1cc(I)c(Oc2ccc(O)c(I)c2)c(I)c1)C(=O)O` (configuration not stated) [LIOTHYRONINE]: the LC retention time amounted to 6.99 min.

As for `O=C(O)c1c(O)cccc1O` [2-6-Dihydroxybenzoic acid], the LC retention time is 5.12 min.

As for `O=C(O)CCCCC1CCSS1` (racemic), the LC retention time amounted to 7.53 min.

As to `CC(=O)OCC(N)C(=O)O` (configuration not stated) [O-ACETYLSERINE], the LC retention time worked out at 0.69 min.

Regarding `O=C(O)CC(=O)O` [MALONATE], the LC retention time stood at 0.83 min.

For the compound `O=P(O)(O)OCC(O)CO` (configuration not stated) [GLYCEROL 3-PHOSPHATE], the LC retention time turned out to be 0.67 min.

On to `O=C(O)Cc1ccc(O)cc1` [4-Hydroxyphenylacetic acid], for which the LC retention time is 4.88 min.

As to `O=C(O)CNC(=O)c1ccccc1` [HIPPURATE], the LC retention time is 4.92 min.

Regarding `CN(C)c1ccc(N)cc1` [N-N-DIMETHYL-1-4-PHENYLENEDIAMINE], the LC retention time came to 0.83 min.

Consider `Nc1cncc(C(=O)O)c1` [5-Aminopyridine-3-carboxylic acid], for which the LC retention time turned out to be 0.74 min.

Consider `O=C(O)Cc1cccc(O)c1` [3-HYDROXYPHENYLACETATE], for which the LC retention time was 5.11 min.

`OCC(O)C(O)C(O)CO` (configuration not stated) [RIBITOL]: the LC retention time came to 0.64 min.

As for `O=C(O)CCCCCCCCC(=O)O` [Sebacic acid], the LC retention time was 6.67 min.

Regarding `O=C(CO)COP(=O)(O)O` [DIHYDROXYACETONE PHOSPHATE], the LC retention time stood at 0.69 min.

In the case of `COc1ccc2[nH]cc(CCNC(C)=O)c2c1` [MELATONIN], the LC retention time was determined as 6.09 min.

As to `O=C(O)C1(O)CC(O)C(O)C(O)C1` (configuration not stated) [QUINATE], the LC retention time is 0.68 min.

Consider `Nc1ncnc2c1ncn2C1CC(O)C(COP(=O)(O)O)O1` (configuration not stated) [DEOXYADENOSINE MONOPHOSPHATE], for which the LC retention time was 0.84 min.

Consider `O=C(O)c1cc(=O)c2cccc(O)c2[nH]1` [XANTHURENATE], for which the LC retention time turned out to be 4.45 min.

As to `O=c1[nH]cc(CO)c(=O)[nH]1` [5-HYDROXYMETHYLURACIL], the LC retention time was 0.82 min.

Regarding `Nc1ncnc2c1ncn2C1OC(CO)C2OP(=O)(O)OC21` (configuration not stated) [ADENOSINE 2'-3'-CYCLIC PHOSPHATE], the LC retention time was 0.83 min.

On to `Nc1ccccc1O` [2-AMINOPHENOL], for which the LC retention time was determined as 0.9 min.

On to `NC1C(O)OC(COP(=O)(O)O)C(O)C1O` (configuration not stated) [GLUCOSAMINE 6-PHOSPHATE], for which the LC retention time worked out at 0.6 min.

Turning to `NC(Cc1cc(I)c(Oc2ccc(O)cc2)c(I)c1)C(=O)O` [3-5-DIIODO-L-THYRONINE], the LC retention time worked out at 6.31 min.

On to `CC(C)=CC(=O)OC(CC(=O)[O-])C[N+](C)(C)C` [3-Methylcrotonyl-L-carnitine], for which the LC retention time turned out to be 4.71 min.

As for `O=C([O-])CCc1ccccc1O` [3-(2-HYDROXYPHENYL)PROPANOATE], the LC retention time turned out to be 5.92 min.

Turning to `C=C1CCC(O)CC1=CC=C1CCCC2(C)C1CCC2C(C)C=CC(C)C(C)C` (configuration not stated) [VITAMIN D2], the LC retention time was 13.9 min.

As to `Nc1nc2c(ncn2C2OC(CO)C(O)C2O)c(=O)[nH]1` (configuration not stated) [GUANOSINE], the LC retention time is 1.26 min.

Take `CCCCCCCCC=CCCCCCCCC(=O)OCC(O)CO` (configuration not stated) [OLEOYL-GLYCEROL]: the LC retention time was found to be 12.1 min.

Take `O=C(O)CCc1ccc(O)cc1O` [3-(2-4-Dihydroxyphenyl)propionic acid]: the LC retention time turned out to be 4.83 min.

With `CCCC(N)C(=O)O` (configuration not stated) [NORVALINE], the LC retention time was 0.82 min.

As to `O=C(O)/C=C/c1ccccc1` [TRANS-CINNAMATE], the LC retention time worked out at 6.96 min.

On to `Nc1nc2nccnc2c(=O)[nH]1` [PTERIN], for which the LC retention time turned out to be 0.82 min.

Regarding `O=C(O)c1ccnc2ccccc12` [4-QUINOLINECARBOXYLIC ACID], the LC retention time is 1.29 min.

With `Cc1cnc(=O)[nH]c1N` [5-METHYLCYTOSINE], the LC retention time amounted to 0.7 min.

In the case of `C=CC1=C(C)C(C=c2[nH]c(=Cc3[nH]c(C=C4NC(=O)C(C)=C4C=C)c(C)c3CCC(=O)O)c(CCC(=O)O)c2C)=NC1=O` [BILIVERDIN], the LC retention time came out at 7.99 min.

For `Nc1nc2nc[nH]c2c(=O)[nH]1` [GUANINE], the LC retention time was 0.78 min.

As to `NCCC(=O)O` [BETA-ALANINE], the LC retention time amounted to 0.62 min.

`CCC(C(=O)O)C(=O)O` [ETHYLMALONATE]: the LC retention time came to 3.77 min.

On to `NCC(O)CCC(N)C(=O)O` (configuration not stated) [5-HYDROXYLYSINE], for which the LC retention time turned out to be 0.57 min.

As to `O=C(O)C(O)Cc1ccc(O)cc1` (configuration not stated) [HYDROXYPHENYLLACTATE], the LC retention time amounted to 4.38 min.

On to `Cn1c(=O)c2c(ncn2C)n(C)c1=O` [CAFFEINE], for which the LC retention time was found to be 4.85 min.

As to `O=C(O)c1ccc(=O)[nH]c1` [6-HYDROXYNICOTINATE], the LC retention time stood at 1.5 min.

As to `NCc1ccccc1` [BENZYLAMINE], the LC retention time came out at 3.59 min.

For the compound `CC(CCC(=O)O)C1CCC2C3C(O)CC4CC(O)CCC4(C)C3CC(O)C12C` (configuration not stated) [CHOLATE], the LC retention time worked out at 8.17 min.

Regarding `CC(C)C(O)(CC(=O)O)C(=O)O` (configuration not stated) [2-Isopropylmalic acid], the LC retention time was determined as 4.79 min.

In the case of `CCCCCCCCCCCCCCCC(O)C(N)CO` (configuration not stated) [SPHINGANINE], the LC retention time was found to be 9.45 min.

On to `Nc1ccc(C(=O)NCC(=O)O)cc1` [Aminohippuric acid], for which the LC retention time is 1.77 min.

Take `CCN(CC)CCCC(C)Nc1c2ccc(Cl)cc2nc2ccc(OC)cc12` (configuration not stated) [quinacrine]: the LC retention time was found to be 5.61 min.

For the compound `N[C@@H](CCC(=O)O)C(=O)O` [L-Glutamic acid], the LC retention time worked out at 0.65 min.

Regarding `Cc1cc2nc3[nH]c(=O)[nH]c(=O)c3nc2cc1C` [LUMICHROME], the LC retention time was determined as 6.03 min.

In the case of `C=CC1=C(C)C(=Cc2[nH]c(Cc3[nH]c(C=C4NC(=O)C(C)=C4C=C)c(C)c3CCC(=O)O)c(CCC(=O)O)c2C)NC1=O` [BILIRUBIN], the LC retention time stood at 12.6 min.

For the compound `O=C(O)/C=C/c1c[nH]c2ccccc12` [trans-3-indoleacrylic acid], the LC retention time is 6.57 min.

Regarding `O=CCc1c[nH]c2ccccc12` [INDOLEACETALDEHYDE], the LC retention time amounted to 4.34 min.

Regarding `Cn1c[n+](C2OC(CO)C(O)C2O)c2nc(N)[nH]c(=O)c21` (configuration not stated) [7-Methylguanosine], the LC retention time was 0.83 min.

Consider `O=C(O)CC(O)(CC(=O)O)C(=O)O` [CITRATE], for which the LC retention time was determined as 0.9 min.

`COc1cc(C=CC(=O)O)ccc1O` [FERULATE]: the LC retention time was 5.67 min.

For the compound `CCCCCCCCCCCCCCCCC(=O)O` [HEPTADECANOATE], the LC retention time amounted to 12.7 min.

As for `O=C(O)C(=O)C(=O)O` [MESOXALATE], the LC retention time was 2.05 min.

`CC1OC(n2cnc3c(N)ncnc32)C(O)C1O` (configuration not stated) [5'-DEOXYADENOSINE]: the LC retention time turned out to be 3.66 min.

In the case of `NC(C(=O)O)c1ccccc1` (configuration not stated) [2-Phenylglycine], the LC retention time is 0.83 min.

For `O=C(OC1Cc2c(O)cc(O)cc2OC1c1cc(O)c(O)c(O)c1)c1cc(O)c(O)c(O)c1` (single isomer, unassigned; (-)) [(-)-Epigallocatechin gallate], the LC retention time is 5.05 min.

`O=C(O)CCCCCCCCCO` [10-HYDROXYDECANOATE]: the LC retention time amounted to 6.79 min.

`CC(C)(CCC(=O)O)C(=O)O` [2-2-Dimethylglutaric acid]: the LC retention time is 5.21 min.

On to `CC(C)(O)C(=O)O` [ALPHA-HYDROXYISOBUTYRATE], for which the LC retention time stood at 1.62 min.

`CCCCCCC=CCCCCCCCC(=O)O` [PALMITOLEATE]: the LC retention time came out at 11.7 min.

As for `CC(=O)NCCCC(=O)O` [4-ACETAMIDOBUTANOATE], the LC retention time was 1.69 min.

`Nc1ncnc2c1ncn2C1OC(COP(=O)(O)O)C(O)C1O` (configuration not stated) [ADENOSINE-MONOPHOSPHATE]: the LC retention time stood at 0.77 min.

Consider `NC(=O)c1ncccc1O` [3-Hydroxypicolinamide], for which the LC retention time was found to be 4.64 min.

In the case of `COc1cc(CC(=O)O)ccc1O` [HOMOVANILLATE], the LC retention time was 5.13 min.

Consider `COc1cc(C(O)CN)ccc1O` (configuration not stated) [NORMETANEPHRINE], for which the LC retention time came to 0.82 min.

With `CCCCCCCCCCCC=CCCCCC(=O)[O-]` [PETROSELINATE], the LC retention time was 12.5 min.

On to `Oc1ccc(C=Cc2cc(O)cc(O)c2)cc1` [resveratrol], for which the LC retention time is 6.28 min.

Consider `CC(=O)NC(CC(=O)O)C(=O)O` (configuration not stated) [N-ACETYLASPARTATE], for which the LC retention time came out at 0.83 min.

Take `O=c1[nH]cnc2c1ncn2C1OC(CO)C(O)C1O` (configuration not stated) [INOSINE]: the LC retention time worked out at 1.53 min.

In the case of `CC(=O)NC(Cc1ccccc1)C(=O)O` (configuration not stated) [N-ACETYLPHENYLALANINE], the LC retention time came to 5.73 min.

Take `O=P(O)(O)OCC1OC(O)C(O)C1O` [D-RIBOSE 5-PHOSPHATE]: the LC retention time is 0.65 min.

As for `NCCc1ccccc1` [PHENETHYLAMINE], the LC retention time amounted to 4.03 min.

`Cc1cc(=O)oc(C)c1C(=O)O` [Isodehydracetic acid]: the LC retention time worked out at 4.13 min.

`Cc1ccccc1C(=O)NCC(=O)O` [2-Methylhippuric acid (ortho-Methylhippuric acid)]: the LC retention time worked out at 5.31 min.

For `COC1OC(CO)C(O)C(O)C1O` (configuration not stated) [METHYL GALACTOSIDE], the LC retention time turned out to be 0.74 min.

On to `CCC(N)C(=O)O` [alpha-aminobutyric acid (L-2-aminobutyric acid)], for which the LC retention time was found to be 0.69 min.

Take `CC(CCC(=O)O)C(=O)O` (configuration not stated) [2-METHYLGLUTARATE]: the LC retention time came to 4.4 min.
